Results taken from publication PMC2248166, “Quantitative peptide binding motifs for 19 human and mouse MHC class I molecules derived using positional scanning combinatorial peptide libraries” (Immunome Research, 2008).

How the values were obtained:
H-2 D^b = H-2 D^b (Mus musculus, UniProt P01899); format: binding
HLA A*6802 = HLA A*6802 (Homo sapiens, UniProt P04439, A269V/D140Y/D185E/E176V/E277Q/E87N/F33Y/G231S/I121R/I166T/I218V/L180W/L300P/L318F/N151K/P208A/P217A/Q86R/R138H/R169H/S129P/T345S/V36M); format: binding
HLA B*5101 = HLA B*5101 (Homo sapiens, UniProt P01889, A329T/A93T/A95T/C349S/D138N/D201E/D98Y/E187L/E204Q/E69T/G107R/I218V/K202T/L105A/L119W/N104I/Q94N/R106L/R155S/R180L/S101N/S121T/S35A/S48A/V306I/V36M/Y195H/Y91F); format: binding
HLA B*3501 = HLA B*3501 (Homo sapiens, UniProt P01889, A329T/A93T/A95T/C349S/D201E/D98Y/E176V/E187L/E204Q/E69T/I218V/K202T/L119I/Q94N/R155S/R180L/S121R/S35A/S48A/T118I/V127L/V306I/V36M/Y140S/Y91F); format: binding
HLA B*0702 = HLA B*0702 (Homo sapiens, UniProt P01889); format: binding; details: positional scanning combinatorial 9-mer library; normalized to 1.0 for the best residue at each position
H-2 D^d = H-2 D^d (Mus musculus, UniProt P01900); format: binding
Chain of H-2 D^d (P01900 whole entry, looked up): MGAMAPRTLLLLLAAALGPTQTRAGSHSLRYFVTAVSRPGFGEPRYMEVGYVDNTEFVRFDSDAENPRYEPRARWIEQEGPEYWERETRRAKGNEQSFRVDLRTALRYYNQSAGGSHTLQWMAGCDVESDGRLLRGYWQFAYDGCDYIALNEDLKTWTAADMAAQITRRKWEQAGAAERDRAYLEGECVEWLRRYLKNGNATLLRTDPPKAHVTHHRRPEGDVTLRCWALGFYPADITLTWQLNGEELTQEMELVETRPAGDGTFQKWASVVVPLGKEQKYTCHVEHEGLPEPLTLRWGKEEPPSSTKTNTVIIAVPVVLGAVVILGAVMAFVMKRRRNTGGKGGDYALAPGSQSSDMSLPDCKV

HLA B*5301 = HLA B*5301 (Homo sapiens, UniProt P01889, A329T/A93T/A95T/C349S/D201E/D98Y/E176V/E187L/E204Q/E69T/G107R/I218V/K202T/L105A/L119I/N104I/Q94N/R106L/R155S/R180L/S101N/S121R/S35A/S48A/T118I/V127L/V306I/V36M/Y140S/Y91F); format: binding
HLA B*5802 = HLA B*5802 (Homo sapiens, UniProt P01889, A329T/C349S/D201E/D98Y/E176V/E187L/E204Q/E69T/G107R/I218V/I90N/K202T/L105A/N104I/N87E/Q89R/Q94S/R106L/R155S/R180L/R86G/S101N/S121W/S35A/S48A/V127L/V306I/V36M/Y140S/Y91M); format: binding
HLA A*3001 = HLA A*3001 (Homo sapiens, UniProt P04439, D140H/D185E/E176W/F33S/G80R/H175R/K168Q/R138E/R41S); experiment: biochemical; format: binding
HLA A*0201 = HLA A*0201 (Homo sapiens, UniProt P04439, D140Y/D185E/D98H/E176V/E277Q/G131W/G231S/I119V/I121R/I166T/I218V/L300P/L318F/N151K/N90K/P208A/P217A/Q86G/Q94H/R138H/R169H/T345S); details: positional scanning combinatorial 9-mer library; normalized to 1.0 for the best residue at each position
HLA B*2705 = HLA B*2705 (Homo sapiens, UniProt P01889, D138H/D201E/E176V/E204Q/G107R/H137Y/K202T/N104T/N87E/Q56L/Q94K/R106L/R155S/R180L/S101D/S121N/S48T/Y140D/Y33H/Y91C); format: binding; details: positional scanning combinatorial 9-mer library; normalized to 1.0 for the best residue at each position
HLA B*1501 = HLA B*1501 (Homo sapiens, UniProt P01889, A329T/A93T/A95T/C349S/D201E/D98Y/E187L/E204Q/E69M/E70A/K202T/N87E/Q94N/R155S/R180W/S121R/S35A/S48A/V306I/V36M/Y140S/Y91S); experiment: biochemical; format: binding
HLA A*3201 = HLA A*3201 (Homo sapiens, UniProt P04439, A270S/D101S/D185E/E176V/E277Q/F133L/G103R/G107R/G231S/H175R/I121M/I218V/I322F/K168Q/L105A/L300P/L318F/M331R/P208A/P217A/Q94H/R106L/R138Q/S129P/T104I/T323A/T345S/V100E/V321M/V358M); experiment: biochemical; format: binding
H-2 K^k = H-2 K^k (Mus musculus, UniProt P04223); format: binding
Chain of H-2 K^k (P01887 21-119): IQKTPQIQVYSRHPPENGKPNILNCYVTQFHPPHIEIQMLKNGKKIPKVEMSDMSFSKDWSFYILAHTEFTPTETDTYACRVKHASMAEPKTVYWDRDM
Chain of H-2 K^k (P04223 22-369): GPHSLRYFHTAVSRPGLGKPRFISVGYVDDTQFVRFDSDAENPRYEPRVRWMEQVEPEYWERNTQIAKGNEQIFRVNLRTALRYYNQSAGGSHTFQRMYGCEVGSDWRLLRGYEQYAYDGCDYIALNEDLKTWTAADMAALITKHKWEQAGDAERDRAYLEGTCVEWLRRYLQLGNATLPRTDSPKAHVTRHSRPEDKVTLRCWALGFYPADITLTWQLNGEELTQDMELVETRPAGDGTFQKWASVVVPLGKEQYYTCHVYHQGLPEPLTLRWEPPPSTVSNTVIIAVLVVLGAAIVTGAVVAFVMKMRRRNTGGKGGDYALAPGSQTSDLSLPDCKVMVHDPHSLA

HLA B*5801 = HLA B*5801 (Homo sapiens, UniProt P01889, A329T/C349S/D201E/D98Y/E176V/E187L/E204Q/E69T/G107R/I218V/I90N/K202T/L105A/L119I/N104I/N87E/Q89R/Q94S/R106L/R155S/R180L/R86G/S101N/S121R/S35A/S48A/T118I/V127L/V306I/V36M/Y140S/Y91M); format: binding
HLA B*1503 = HLA B*1503 (Homo sapiens, UniProt P01889, A329T/A93T/A95T/C349S/D201E/D98Y/E187L/E204Q/K202T/N87E/Q94N/R155S/R180L/S121R/S35A/V306I/V36M/Y140S/Y91S); experiment: biochemical; format: binding
HLA B*5401 = HLA B*5401 (Homo sapiens, UniProt P01889, A329T/C349S/D138N/D201E/E176V/E187T/E204Q/E69G/I76V/K202T/L119W/R155S/R180L/S121T/S35A/S48A/V127L/V306I/V36M/Y140L); format: binding
HLA B*0801 = HLA B*0801 (Homo sapiens, UniProt P01889, A93T/A95T/D138N/E176V/E187T/K202T/Q94N/R180D/S35A/V36M/Y33D/Y91F); experiment: biochemical; format: binding

Chain of H-2 D^b (P01887 21-119): as the sequence (P01887 21-119) above
Chain of H-2 D^b (P01899 25-362): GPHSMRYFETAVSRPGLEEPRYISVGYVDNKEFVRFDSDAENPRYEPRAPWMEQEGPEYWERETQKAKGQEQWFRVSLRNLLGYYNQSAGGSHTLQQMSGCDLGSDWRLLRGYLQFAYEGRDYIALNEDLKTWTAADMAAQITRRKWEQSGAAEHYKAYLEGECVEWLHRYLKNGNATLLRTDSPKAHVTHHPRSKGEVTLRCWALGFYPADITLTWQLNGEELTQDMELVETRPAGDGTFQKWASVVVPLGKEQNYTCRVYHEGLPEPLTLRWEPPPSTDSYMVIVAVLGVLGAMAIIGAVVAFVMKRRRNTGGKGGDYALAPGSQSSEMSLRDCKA

## XWXXXXXXX [3064.0039]
H-2 D^b
  Normalized average relative binding affinity (ARB), H-2 Db: 0.10
HLA A*6802
  Normalized average relative binding affinity (ARB), HLA A*6802: 0.022
HLA B*5101
  Normalized average relative binding affinity (ARB), HLA B*5101: 0.050
HLA B*3501
  Normalized average relative binding affinity (ARB), HLA B*3501: 0.015
HLA B*0702
  Normalized average relative binding affinity (ARB), HLA B*0702: 0.0052
H-2 D^d
  Normalized average relative binding affinity (ARB), H-2 Dd: 0.061
HLA B*5301
  Normalized average relative binding affinity (ARB), HLA B*5301: 0.0054
HLA B*5802
  Normalized average relative binding affinity (ARB), HLA B*5802: 0.098
HLA A*3001
  Normalized average relative binding affinity (ARB), HLA A*3001: 0.26
HLA A*0201
  Normalized average relative binding affinity (ARB), HLA A*0201: 0.0024
HLA B*2705
  Normalized average relative binding affinity (ARB), HLA B*2705: 0.0022
HLA B*1501
  Normalized average relative binding affinity (ARB), HLA B*1501: 0.027
HLA A*3201
  Normalized average relative binding affinity (ARB), HLA A*3201: 0.034
H-2 K^k
  Normalized average relative binding affinity (ARB), H-2 Kk: 0.0069
HLA B*5801
  Normalized average relative binding affinity (ARB), HLA B*5801: 0.0033
HLA B*1503
  Normalized average relative binding affinity (ARB), HLA B*1503: 0.0038
HLA B*5401
  Normalized average relative binding affinity (ARB), HLA B*5401: 0.0040
HLA B*0801
  Normalized average relative binding affinity (ARB), HLA B*0801: 0.024

## XXAXXXXXX [3064.0041]
H-2 D^b
  Normalized average relative binding affinity (ARB), H-2 Db: 0.022
HLA A*6802
  Normalized average relative binding affinity (ARB), HLA A*6802: 0.0051
HLA B*5101
  Normalized average relative binding affinity (ARB), HLA B*5101: 0.47
HLA B*3501
  Normalized average relative binding affinity (ARB), HLA B*3501: 0.19
HLA B*0702
  Normalized average relative binding affinity (ARB), HLA B*0702: 0.0097
H-2 D^d
  Normalized average relative binding affinity (ARB), H-2 Dd: 0.0028
HLA B*5301
  Normalized average relative binding affinity (ARB), HLA B*5301: 0.0065
HLA B*5802
  Normalized average relative binding affinity (ARB), HLA B*5802: 0.047
HLA A*3001
  Normalized average relative binding affinity (ARB), HLA A*3001: 0.0077
HLA A*0201
  Normalized average relative binding affinity (ARB), HLA A*0201: 0.43
HLA B*2705
  Normalized average relative binding affinity (ARB), HLA B*2705: 0.21
HLA B*1501
  Normalized average relative binding affinity (ARB), HLA B*1501: 0.23
HLA A*3201
  Normalized average relative binding affinity (ARB), HLA A*3201: 0.24
H-2 K^k
  Normalized average relative binding affinity (ARB), H-2 Kk: 0.0061
HLA B*5801
  Normalized average relative binding affinity (ARB), HLA B*5801: 0.32
HLA B*1503
  Normalized average relative binding affinity (ARB), HLA B*1503: 0.29
HLA B*5401
  Normalized average relative binding affinity (ARB), HLA B*5401: 0.00077
HLA B*0801
  Normalized average relative binding affinity (ARB), HLA B*0801: 0.12

## XXCXXXXXX [3064.0042]
H-2 D^b
  Normalized average relative binding affinity (ARB), H-2 Db: 0.098
HLA A*6802
  Normalized average relative binding affinity (ARB), HLA A*6802: 0.071
HLA B*5101
  Normalized average relative binding affinity (ARB), HLA B*5101: 0.24
HLA B*3501
  Normalized average relative binding affinity (ARB), HLA B*3501: 0.074
HLA B*0702
  Normalized average relative binding affinity (ARB), HLA B*0702: 0.047
H-2 D^d
  Normalized average relative binding affinity (ARB), H-2 Dd: 0.0028
HLA B*5301
  Normalized average relative binding affinity (ARB), HLA B*5301: 0.0065
HLA B*5802
  Normalized average relative binding affinity (ARB), HLA B*5802: 0.37
HLA A*3001
  Normalized average relative binding affinity (ARB), HLA A*3001: 0.0048
HLA A*0201
  Normalized average relative binding affinity (ARB), HLA A*0201: 0.22
HLA B*2705
  Normalized average relative binding affinity (ARB), HLA B*2705: 0.14
HLA B*1501
  Normalized average relative binding affinity (ARB), HLA B*1501: 0.35
HLA A*3201
  Normalized average relative binding affinity (ARB), HLA A*3201: 0.32
H-2 K^k
  Normalized average relative binding affinity (ARB), H-2 Kk: 0.15
HLA B*5801
  Normalized average relative binding affinity (ARB), HLA B*5801: 0.11
HLA B*1503
  Normalized average relative binding affinity (ARB), HLA B*1503: 0.048
HLA B*5401
  Normalized average relative binding affinity (ARB), HLA B*5401: 0.015
HLA B*0801
  Normalized average relative binding affinity (ARB), HLA B*0801: 0.020
